Measured values from patent US9833444B2 (priority 2013, dated 2017).
Like-named read-outs stand apart in the source and are kept apart here.

Legend:
[1] = tested on: venom of Loxosceles laeta; assay type: biochemical; conditions: for inhibition of the hydrolytic activity of the venom of L. laeta on the SM substrate: 40 µM
[2] = tested on: MMP-9; assay type: cell-based, human
[3] = tested on: dermonecrotic lesions developed in rabbits; assay type: in vivo; conditions: for histopathological analysis of the skin of rabbits inoculated with the venom: rabbit, in vivo; for reduction of dermonecrotic injury, 24 hours after venom inoculation / inhibition of dermonecrotic injury, 48 hours / inhibition of dermonecrotic injury, 72 hours: rabbits; for reduction of dermonecrotic injury, 24 hours after venom inoculation: compound at three times IC50 (136.2 μM compound 5, 190.2 μM compound 6); for inhibition of dermonecrotic injury, 48 hours / inhibition of dermonecrotic injury, 72 hours: compound at three times IC50
[4] = tested on: MMP-2; assay type: cell-based, human
[5] = tested on: human keratinocytes; assay: cells; conditions: Keratinocyte
[6] = tested on: TNF-α; assay type: cell-based, human
[7] = tested on: human red blood cells; assay type: cell-based
[8] = tested on: human keratinocytes; assay: cells; assay type: cell-based; conditions: Keratinocyte, read-out: inhibition of superoxide production
[9] = tested on: TGF-β1; assay type: cell-based, human
[10] = Average inhibition of all activities tested (overall efficiency); conditions: average over all aspects analyzed
From the text: Thus, taking into consideration all the aspects analyzed, compound 5 of the present invention is 61.1% efficient, while compound 6 of this invention is 54.1% efficient in relation to the mechanisms involved in the toxicity of SMases D in the development of loxoscelism.

[11] = molecular target: recombinant toxin sphingomyelinase D (SMase D) (Loxosceles laeta, UniProt Q8I914); assay: biochemical; conditions: for inhibition at 40 µM: read-out: inhibition of the hydrolytic activity of recombinant toxin on the SM substrate
[12] = molecular target: PLD of C. pseudotuberculosis (Corynebacterium pseudotuberculosis, UniProt P20626); assay type: biochemical
[13] = molecular target: SMases of Stahylococcus aureus (Staphylococcus aureus, UniProt P09978); assay: Hydrolytic activity of SMase of Staphylococcus aureus on sphingomyelin; assay type: biochemical; conditions: compound 40 μM
[14] = tested on: human keratinocytes; assay type: cell-based; conditions: compound 40 μM; flow cytometry
[15] = tested on: ERK1/2; assay: Activation of MAPK ERK1/2 signaling pathway in keratinocytes induced by recombinant SMases D, ELISA; assay type: cell-based, human; conditions: compound 40 μM
[16] = tested on: human red blood cells; assay type: cell-based; remark: listed apart in the source
[17] = tested on: TNF receptor; assay type: cell-based, human
[18] = read-out: viability of human keratinocytes treated with recombinant toxin
[19] = read-out: viability of human keratinocytes treated with venom of L. laeta

recombinant toxin sphingomyelinase D (SMase D), sequence (Q8I914 27-311 limits assumed): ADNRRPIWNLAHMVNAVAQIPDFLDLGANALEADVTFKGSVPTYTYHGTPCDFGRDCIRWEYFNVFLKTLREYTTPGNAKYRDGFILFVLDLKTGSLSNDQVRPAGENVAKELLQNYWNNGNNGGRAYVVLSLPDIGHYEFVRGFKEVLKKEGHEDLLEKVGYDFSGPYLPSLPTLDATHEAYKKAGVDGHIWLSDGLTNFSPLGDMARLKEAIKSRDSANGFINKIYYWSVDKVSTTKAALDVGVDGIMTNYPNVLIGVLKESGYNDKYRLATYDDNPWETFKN
SMases of Stahylococcus aureus, sequence (P09978 35-330 limits assumed): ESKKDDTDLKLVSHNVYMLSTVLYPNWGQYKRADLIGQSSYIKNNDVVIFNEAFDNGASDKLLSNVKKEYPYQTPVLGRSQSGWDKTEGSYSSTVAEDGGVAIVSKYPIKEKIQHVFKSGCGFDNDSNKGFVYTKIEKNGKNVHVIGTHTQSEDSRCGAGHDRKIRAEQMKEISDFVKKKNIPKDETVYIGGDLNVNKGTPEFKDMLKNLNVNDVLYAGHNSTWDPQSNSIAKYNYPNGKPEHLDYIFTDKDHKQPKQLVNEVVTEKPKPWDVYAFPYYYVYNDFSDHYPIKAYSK
PLD of C. pseudotuberculosis, sequence (P20626 25-307 limits assumed): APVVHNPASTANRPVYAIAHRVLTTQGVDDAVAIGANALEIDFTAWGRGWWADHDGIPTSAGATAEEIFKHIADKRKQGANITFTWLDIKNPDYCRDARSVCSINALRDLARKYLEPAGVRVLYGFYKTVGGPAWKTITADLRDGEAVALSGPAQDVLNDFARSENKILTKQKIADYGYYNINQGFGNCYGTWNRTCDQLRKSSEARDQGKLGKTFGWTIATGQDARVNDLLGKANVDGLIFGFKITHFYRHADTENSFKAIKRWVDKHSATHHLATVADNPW

Structure (SMILES) | reduction of the hydrolytic activity of the venom on substrate LPC [1] [%] | inhibition of the hydrolytic activity of the venom of L. laeta on the SM substrate [1] [%] | inhibition of MMP-9 secretion [2] | histopathological analysis of the skin of rabbits inoculated with the venom [3] | reduction of dermonecrotic injury, 24 hours after venom inoculation [3] [%] | inhibition of dermonecrotic injury, 48 hours [3] [%] | inhibition of dermonecrotic injury, 72 hours [3] [%] | reduction of MMP-2 secretion [4] [%] | viability at 10 µM [5, 18] [%] | viability at 10 µM [5, 19] [%] | reduction of TNF-α production [6] [%] | reduction of removal of glycophorin C from the surface of human red blood cells [7] [%] | inhibition at 40 µM [8] [%] | reduction of TGF-β1 production [9] [%] | efficiency in relation to the mechanisms involved in the toxicity of SMases D (average inhibition of all activities tested) [10] [%] | IC50 [11] [µM] | inhibition mechanism [11] | reduction of the hydrolytic activity of recombinant toxin on substrate LPC [11] [%] | inhibition at 40 µM [11] [%] | reduction of PLD activity of C. pseudotuberculosis on sphingomyelin [12] | other results
Cc1cc(OS(=O)(=O)c2ccc(Cl)cc2)cc2c1C(=O)C(=Cc1cccnc1)O2 [Compound 6, 4-methyl-3-oxo-2-(3-pyridylmethylene)benzo[3,4-b]furan-6-yl-4-chlorobenzenesulphonate] | 16 | 22.7 | completely inhibit | reduction in the disorganization of the collagen fibers in the dermis, absence of hemorrhage and inflammatory infiltrate | 36 | 45 | 49 | 98.4 | 53.5 | 59.3 | 61.1 | 88.2 | 92.7 | 89.2 | 54.1 | 63.4 ± 1.1 | uncompetitive action inhibitors | 34 | 51 | about 68% | reduction of hydrolytic activity of SMase of Staphylococcus aureus [13]: efficiently reduced; reduction of binding of SMases present in venom to the surface of human keratinocytes [14]: 25.6%; reduction of binding of recombinant toxin to the surface of human keratinocytes [14]: 50.77%; reduction of phosphorylated ERK1/2 [15]: 80.2%; reduction of binding of the toxin to the red blood cell surface [16]: 84%
Cc1[nH]c2ccccc2c1/C=N/NS(=O)(=O)c1ccc(Br)cc1 [Compound 5, 4-bromo-N-[(E)-(2-methyl-1H-indol-3-yl)methyleneamino]benzenosulfonamide] | 44.4 | 53 | completely inhibit | reduction in the disorganization of the collagen fibers in the dermis, absence of hemorrhage and inflammatory infiltrate | 61.8 | 60 | 56 | 81 | 55.8 | 45.9 | 73.9 | 92.6 | 70.7 | 88.3 | 61.1 | 45.4 ± 1.2 | uncompetitive action inhibitors | 38.6 | 45.7 | about 70% | reversal of toxin-induced removal of the TNF receptor from the cell surface [17]: 27.7%; reduction of hydrolytic activity of SMase of Staphylococcus aureus [13]: efficiently reduced; reduction of binding of SMases present in venom to the surface of human keratinocytes [14]: 63.8%; reduction of binding of recombinant toxin to the surface of human keratinocytes [14]: 54.9%; reduction of phosphorylated ERK1/2 [15]: 65.8%; reduction of binding of the toxin to the red blood cell surface [16]: 96.8%
